Patent publication US20220396586A1, “THIAZOLE CARBOXAMIDE COMPOUNDS AND USE THEREOF FOR THE TREATMENT OF MYCOBACTERIAL INFECTIONS” (THE GLOBAL ALLIANCE FOR TB DRUG DEVELOPMENT, INC., priority 2019, published 2022)
≈ marks a conversion by molar mass, not a printed value.

Legend:
[1] = test system: M. tb H37Rv; experiment: MIC determination against M. tb H37Rv (MIC-MABA); format: cell-based, Mycobacterium tuberculosis; conditions: 7H9 broth, 10 days exposure, MIC = lowest concentration inhibiting fluorescence by 90%; for MIC: Mycobacterium tuberculosis, H37RV, 240 h, read-out: M. tb H37Rv: MIC-MABA, M. tb H37Rv
[2] = test system: M. ab_ATCC; experiment: MIC against Mycobacterium abscessus (M. ab_ATCC, MHII), procedure of Franz 2017; format: cell-based; conditions: Mycobacterium abscessus ATCC; for MIC: Mycobacteroides abscessus
Excerpt: The procedure described in Franz 2017 was used to generate the data shown in column 2 of Table 1.

SMILES	MIC [1] [µg/mL]	MIC [2] [µg/mL]	M. tb H37Rv: MIC-MABA [1] [µg/mL]	M. ab_ATCC: MIC MHII: MIC [2] [µg/mL]
C[Si]1(C)CCC(NC(=O)c2cc3sc(-c4ccccc4)nc3[nH]2)CC1 [MPL-308, N-(1,1-dimethylsilinan-4-yl)-2-phenyl-4H-pyrrolo[2,3-d]thiazole-5-carboxamide]	0.007 (≈ 0.0189 µM)	> 64		
CC1CCC(NC(=O)c2cc3sc(-c4ccccc4)nc3[nH]2)CC1 (single isomer, unassigned) [MPL-433B, N-(4-methylcyclohexyl)-2-phenyl-4H-pyrrolo[2,3-d]thiazole-5-carboxamide]			0.69	
C[Si]1(C)CCCC(NC(=O)c2cc3sc(-c4ccccn4)nc3[nH]2)CC1 (stereo not shown) [MPL-364, N-(1,1-dimethylsilepan-4-yl)-2-(2-pyridyl)-4H-pyrrolo[2,3-d]thiazole-5-carboxamide]	0.423 (≈ 1.1 µM)	> 64		
Cc1c(C(=O)NC2CCCC[Si](C)(C)CC2)[nH]c2nc(C3CC3)sc12 (stereo not shown) [MPL-293, 2-cyclopropyl-N-(1,1-dimethylsilocan-4-yl)-6-methyl-4H-pyrrolo [2,3-d]thiazole-5-carboxamide]	0.062 (≈ 0.165 µM)	> 64		
C[Si]1(C)CCC(NC(=O)c2cc3sc(C4CC4)nc3[nH]2)CC1 [MPL-240, 2-cyclopropyl-N-(1,1-dimethylsilinan-4-yl)-4H-pyrrolo[2,3-d]thiazole-5-carboxamide]	0.46 (≈ 1.38 µM)	0.5 (≈ 1.5 µM)		
C[Si]1(C)CCCC(NC(=O)c2cc3sc(OC4CCCC4)nc3[nH]2)CC1 (stereo not shown) [MPL-478, 2-(cyclopentoxy)-N-(1,1-dimethylsilepan-4-yl)-4H-pyrrolo[2,3-d]thiazole-5-carboxamide]	0.02 (≈ 0.0511 µM)	> 64		
Cc1nc2[nH]c(C(=O)NC3CC[Si](C)(C)CC3)cc2s1 [MPL-205, N-(1,1-dimethylsilinan-4-yl)-2-methyl-4H-pyrrolo [2,3-d]thiazole-5-carboxamide]	0.18 (≈ 0.585 µM)	> 64		
C[Si]1(C)CCCC(NC(=O)c2cc3sc(OC4CC4)nc3[nH]2)CC1 (stereo not shown) [MPL-472, 2-(cyclopropoxy)-N-(1,1-dimethylsilepan-4-yl)-4H-pyrrolo[2,3-d]thiazole-5-carboxamide]	0.06 (≈ 0.165 µM)	> 64		
CC1(C)CCC(NC(=O)c2cc3scnc3[nH]2)CC1 [MPL-021, N-(4,4-dimethylcyclohexyl)-4H-pyrrolo[2,3-d]thiazole-5-carboxamide]	1.3 (≈ 4.69 µM)	> 64		
O=C(NC1CCCCCCC1)c1cc2sc(C3CC3)nc2[nH]1 [MPL-142, N-cyclooctyl-2-cyclopropyl-4H-pyrrolo[2,3-d]thiazole-5-carboxamide]	0.93 (≈ 2.93 µM)	> 64		
COc1nc2[nH]c(C(=O)NC3CCC[Si](C)(C)CCC3)cc2s1 [MPL-396, N-(1,1-dimethylsilocan-5-yl)-2-methoxy-4H-pyrrolo[2,3-d]thiazole-5-carboxamide]	0.309 (≈ 0.879 µM)	> 64		
Cc1nc2[nH]c(C(=O)NC3CCCCCCC3)cc2s1 [MPL-042, N-cyclooctyl-2-methyl-4H-pyrrolo[2,3-d]thiazole-5-carboxamide]	0.35 (≈ 1.2 µM)	> 64		
Cc1c(C(=O)NC2CCCCCCC2)[nH]c2nc(C3CC3)sc12 [MPL-291, N-cyclooctyl-2-cyclopropyl-6-methyl-4H-pyrrolo[2,3-d]thiazole-5-carboxamide]	0.372 (≈ 1.12 µM)	> 64		
C[Si]1(C)CCC(NC(=O)c2cc3sc(-c4ccccc4)nc3[nH]2)C1 (stereo not shown) [MPL-404, N-(1,1-dimethylsilolan-3-yl)-2-phenyl-4H-pyrrolo[2,3-d]thiazole-5-carboxamide]	0.083 (≈ 0.233 µM)	64 (≈ 180 µM)		
COc1nc2[nH]c(C(=O)NC3CCC[Si](C)(C)CC3)cc2s1 (single isomer, unassigned) [MPL-395A, N-(1,1-dimethylsilepan-4-yl)-2-methoxy-4H-pyrrolo[2,3-d]thiazole-5-carboxamide]			0.030	0.5
C[C@@H]1[C@@H](NC(=O)c2cc3scnc3[nH]2)C[C@H]2C[C@@H]1C2(C)C [MPL-026, N-[(1S,2S,3S,5R)-2,6,6-trimethylnorpinan-3-yl]-4H-pyrrolo[2,3-d]thiazole-5-carboxamide]	3.1 (≈ 10.2 µM)			
C[Si]1(C)CCC(NC(=O)c2cc3sc(-c4ccncc4)nc3[nH]2)CC1 [MPL-370, N-(1,1-dimethylsilinan-4-yl)-2-(4-pyridyl)-4H-pyrrolo[2,3-d]thiazole-5-carboxamide]	0.574 (≈ 1.55 µM)	> 64		
Cc1c(C(=O)NC2CC[Si](C)(C)CC2)[nH]c2sc(C(C)C)nc12 [MPL-312, N-(1,1-dimethylsilinan-4-yl)-2-isopropyl-6-methyl-4H-pyrrolo[3,2-d]thiazole-5-carboxamide]	0.498 (≈ 1.42 µM)	> 64		
C[Si]1(C)CCC(NC(=O)c2[nH]c3sc(C4CC4)nc3c2Br)CC1 [MPL-311, 6-bromo-2-cyclopropyl-N-(1,1-dimethylsilinan-4-yl)-4H-pyrrolo[3,2-d]thiazole-5-carboxamide]	0.457 (≈ 1.11 µM)	> 64		

SMILES	MIC [1] [µg/mL]	MIC [2] [µg/mL]	M. tb H37Rv: MIC-MABA [1] [µg/mL]	M. ab_ATCC: MIC MHII: MIC [2] [µg/mL]
COc1nc2[nH]c(C(=O)NC3CCC[Si](C)(C)CC3)cc2s1 (single isomer, unassigned) [MPL-395B, N-(1,1-dimethylsilepan-4-yl)-2-methoxy-4H-pyrrolo[2,3-d]thiazole-5-carboxamide]			0.999	>64
Cc1nc2cc(C(=O)NC3CCCCCCC3)[nH]c2s1 [MPL-091, N-cyclooctyl-2-methyl-4H-pyrrolo[3,2-d]thiazole-5-carboxamide]	> 3.2	> 64		
C[Si]1(C)CCC(NC(=O)c2cc3sc(C4CCCC4)nc3[nH]2)CC1 [MPL-474, 2-cyclopentyl-N-(1,1-dimethylsilinan-4-yl)-4H-pyrrolo[2,3-d] thiazole-5-carboxamide]	0.061 (≈ 0.169 µM)	> 64		
Cc1c(C(=O)NC2CC[Si](C)(C)CC2)[nH]c2nc(C3CC3)sc12 [MPL-228, 2-cyclopropyl-N-(1,1-dimethylsilinan-4-yl)-6-methyl-4H-pyrrolo[2,3-d]thiazole-5-carboxamide]	0.061 (≈ 0.176 µM)	> 64		
COc1nc2[nH]c(C(=O)NC3CC[Si](C)(C)CC3)cc2s1 [MPL-309, N-(1,1-dimethylsilinan-4-yl)-2-methoxy-4H-pyrrolo[2,3-d]thiazole-5-carboxamide]	0.088 (≈ 0.272 µM)	0.625 (≈ 1.93 µM)		
O=C(NC1CC[Si]2(CCCC2)CC1)c1cc2sc(OC3CCC3)nc2[nH]1 [MPL-459, 2-(cyclobutoxy)-N-(5-silaspiro[4.5]decan-8-yl)-4H-pyrrolo[2,3-d]thiazole-5-carboxamide]	0.0593 (≈ 0.152 µM)	> 64		
COc1nc2[nH]c(C(=O)N[C@H]3C[C@H]4C[C@H](C4(C)C)[C@@]3(C)O)cc2s1 [MPL-457, N-[(1R,2R,3S,5R)-2-hydroxy-2,6,6-trimethyl-norpinan-3-yl]-2-methoxy-4H-pyrrolo[2,3-d]thiazole-5-carboxamide]	> 1			
Cc1c(C(=O)N[C@H]2C[C@H]3C[C@@H]([C@@H]2C)C3(C)C)[nH]c2nc(C3CC3)sc12 [MPL-150, 2-cyclopropyl-6-methyl-N-((1S,2S,3S,5R)-2,6,6-trimethylbicyclo[3.1.1]heptan-3-yl)-4H-pyrrolo[2,3-d]thiazole-5-carboxamide]	0.3 (≈ 0.839 µM)	> 64		
Cc1ccccc1-c1nc2[nH]c(C(=O)NC3CC[Si](C)(C)CC3)cc2s1 [MPL-371, N-(1,1-dimethylsilinan-4-yl)-2-(o-tolyl)-4H-pyrrolo[2,3-d]thiazole-5-carboxamide]	0.041 (≈ 0.107 µM)	> 64		
COc1nc2cc(C(=O)NC3CC[Si](C)(C)CC3)[nH]c2s1 [MPL-313, N-(1,1-dimethylsilinan-4-yl)-2-methoxy-4H-pyrrolo[3,2-d]thiazole-5-carboxamide]	0.254 (≈ 0.785 µM)	> 64		
Cc1nc2cc(C(=O)NC3CC[Si](C)(C)CC3)[nH]c2s1 [MPL-206, N-(1,1-dimethylsilinan-4-yl)-2-methyl-4H-pyrrolo[3,2-d]thiazole-5-carboxamide]	> 1.6	> 64		
Cc1nc2[nH]c(C(=O)N[C@H]3C[C@H]4C[C@@H]([C@@H]3C)C4(C)C)cc2s1 [MPL-025, 2-methyl-N-[(1S,2S,3S,5R)-2,6,6-trimethylnorpinan-3-yl]-4H-pyrrolo[2,3-d]thiazole-5-carboxamide]	0.71 (≈ 2.24 µM)	4 (≈ 12.6 µM)		
CC1CCC(NC(=O)c2cc3sc(-c4ccccc4)nc3[nH]2)CC1 (single isomer, unassigned) [MPL-433A, N-(4-methylcyclohexyl)-2-phenyl-4H-pyrrolo[2,3-d]thiazole-5-carboxamide]	> 1			
Cc1nc2cc(C(=O)N[C@H]3C[C@H]4C[C@@H]([C@@H]3C)C4(C)C)[nH]c2s1 [MPL-090, 2-methyl-N-((1S,2S,3S,5R)-2,6,6-trimethylbicyclo[3.1.1]heptan-3-yl)-4H-pyrrolo[3,2-d]thiazole-5-carboxamide]	3.2 (≈ 10.1 µM)	> 64		
C[Si]1(C)CCC(NC(=O)c2cc3sc(-c4ccccc4F)nc3[nH]2)CC1 [MPL-373, N-(1,1-dimethylsilinan-4-yl)-2-(2-fluorophenyl)-4H-pyrrolo[2,3-d]thiazole-5-carboxamide]	0.084 (≈ 0.217 µM)	6 (≈ 15.5 µM)		
CC(C)(C)c1ccc(-c2nc3[nH]c(C(=O)NC4CC[Si]5(CCCCC5)CC4)cc3s2)cc1 [MPL-426, 2-(4-tert-butylphenyl)-N-(6-silaspiro[5.5]undecan-3-yl)-4H-pyrrolo[2,3-d]thiazole-5-carboxamide]	0.12 (≈ 0.258 µM)			
C[Si]1(C)CCCC(NC(=O)c2cc3sc(-c4ccccc4)nc3[nH]2)CC1 (single isomer, unassigned) [MPL-357A, N-(1,1-dimethylsilepan-4-yl)-2-phenyl-4H-pyrrolo[2,3-d]thiazole-5-carboxamide]			0.007	
C[Si]1(C)CCCC(NC(=O)c2cc3sc(-c4ccccc4)nc3[nH]2)CC1 (single isomer, unassigned) [MPL-357B, N-(1,1-dimethylsilepan-4-yl)-2-phenyl-4H-pyrrolo[2,3-d]thiazole-5-carboxamide]			0.110	
